Patent US20260274829A1, “NEW E3 UBIQUITIN LIGASE LIGAND, PROTEIN DEGRADATION AGENT AND USE THEREOF” (GLUETACS THERAPEUTICS (SHANGHAI) CO., LTD., priority 2023, published 2026)

Molecular target: T1, human Cereblon WT GST-tagged protein (Homo sapiens, UniProt Q96SW2)
T1 construct: purchased CISBIO 64BDCRBNPEH
Assay: CRBN binding, HTRF CEREBLON BINDING kit
Details: CRBN binding, HTRF CEREBLON BINDING kit
Outline: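 HTRF competition in which test compounds displace a Thalidomide-Re tracer from GST-tagged human Cereblon WT, detected with a GST Eu antibody. Incubation lasted 3 hours at room temperature, with emission read at 620 and 665 nm. Inhibition rate was derived from 665/620 ratios relative to blank and solvent control wells.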

T1 sequence (Q96SW2 whole entry): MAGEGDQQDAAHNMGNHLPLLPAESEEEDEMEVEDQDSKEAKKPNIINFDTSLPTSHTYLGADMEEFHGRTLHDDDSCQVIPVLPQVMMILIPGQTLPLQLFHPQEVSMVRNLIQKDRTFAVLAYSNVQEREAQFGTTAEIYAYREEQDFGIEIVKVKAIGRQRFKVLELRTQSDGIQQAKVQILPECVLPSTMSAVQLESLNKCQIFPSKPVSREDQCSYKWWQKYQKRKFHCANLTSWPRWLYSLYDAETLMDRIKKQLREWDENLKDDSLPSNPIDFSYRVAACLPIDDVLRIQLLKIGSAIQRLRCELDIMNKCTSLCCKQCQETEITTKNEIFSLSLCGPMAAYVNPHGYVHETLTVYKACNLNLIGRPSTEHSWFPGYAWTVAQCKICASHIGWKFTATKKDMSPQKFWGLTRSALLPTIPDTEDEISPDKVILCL

| SMILES | IC50 |
| --- | --- |
| Cc1cc(Nc2ncc(Cl)c(Nc3ccccc3S(=O)(=O)C(C)C)n2)c(OC(C)C)cc1C1CCN(Cc2cccc(N3CCC(=O)NC3=O)c2)CC1 [GT-07593, 1-(3-((4-(4-((5-chloro-4-((2-(isopropylsulfonyl)phenyl)amino)pyrimidin-2-yl)amino)-5-isopropoxy-2-methylphenyl)piperidin-1-yl)methyl)phenyl)dihydropyrimidine-2,4(1H,3H)-dione] | 0.5 to 1 µM |
| Cc1cc(Nc2ncc(Cl)c(Nc3ccccc3S(=O)(=O)C(C)C)n2)c(OC(C)C)cc1C1CCN(Cc2cc(C3CCC(=O)NC3=O)cnc2F)CC1 (stereo not shown) [GT-07598, 3-(5-((4-(4-((5-chloro-4-((2-(isopropylsulfonyl)phenyl)amino)pyrimidin-2-yl)amino)-5-isopropoxy-2-methylphenyl)piperidin-1-yl)methyl)-6-fluoropyridin-3-yl)piperidine-2,6-dione] | 0.5 to 1 µM |
| COc1cc(N2CCC(N3CCN(Cc4cc(C5CCC(=O)NC5=O)cnc4F)CC3)CC2)ccc1Nc1ncc(Cl)c(Nc2ccccc2P(C)(C)=O)n1 (stereo not shown) [GT-07611, 3-(5-((4-(1-(4-((5-chloro-4-((2-(dimethylphosphoryl)phenyl)amino)pyrimidin-2-yl)amino)-3-methoxyphenyl)piperidin-4-yl)piperazin-1-yl)methyl)-6-fluoropyridin-3-yl)piperidine-2,6-dione] | 0.5 to 1 µM |
| COc1cc(N2CCC(N(C)Cc3cccc(N4CCC(=O)NC4=O)c3)CC2)ccc1Nc1ncc(Cl)c(Nc2ccccc2P(C)(C)=O)n1 [GT-07616, 1-(3-(((1-(4-((5-chloro-4-((2-(dimethylphosphoryl)phenyl)amino)pyrimidin-2-yl)amino)-3-methoxyphenyl)piperidin-4-yl)(methyl)amino)methyl)phenyl)dihydropyrimidine-2,4(1H,3H)-dione] | 1 to 1.9 µM |
| COc1cc(N2CCC(N(C)Cc3ccc(C4CCC(=O)NC4=O)cn3)CC2)ccc1Nc1ncc(Cl)c(Nc2ccccc2P(C)(C)=O)n1 (stereo not shown) [GT-07698, 3-(6-(((1-(4-((5-chloro-4-((2-(dimethylphosphoryl)phenyl)amino)pyrimidin-2-yl)amino)-3-methoxyphenyl)piperidin-4-yl)(methyl)amino)methyl)pyridin-3-yl)piperidine-2,6-dione] | 1 to 1.9 µM |
| COc1cc(N2CCC(N(C)Cc3cncc(C4CCC(=O)NC4=O)c3)CC2)ccc1Nc1ncc(Cl)c(Nc2ccccc2P(C)(C)=O)n1 (stereo not shown) [GT-07699, 3-(5-(((1-(4-((5-chloro-4-((2-(dimethylphosphoryl)phenyl)amino)pyrimidin-2-yl)amino)-3-methoxyphenyl)piperidin-4-yl)(methyl)amino)methyl)pyridin-3-yl)piperidine-2,6-dione] | 0.5 to 1 µM |
| CCc1cc2c(cc1N1CCC(N3CCN(Cc4ccnc(C5CCC(=O)NC5=O)c4)CC3)CC1)C(C)(C)c1[nH]c3cc(C#N)ccc3c1C2=O (stereo not shown) [GT-07704, 8-(4-(4-((2-(2,6-dioxopiperidin-3-yl)pyridin-4-yl)methyl)piperazin-1-yl)piperidin-1-yl)-9-ethyl-6,6-dimethyl-11-oxo-6,11-dihydro-5H-benzo[b]carbazole-3-carbonitrile] | 1 to 1.9 µM |
| CCc1cc2c(cc1N1CCC(N3CCN(Cc4cncc(C5CCC(=O)NC5=O)c4)CC3)CC1)C(C)(C)c1[nH]c3cc(C#N)ccc3c1C2=O (stereo not shown) [GT-07706, 8-(4-(4-((5-(2,6-dioxopiperidin-3-yl)pyridin-3-yl)methyl)piperazin-1-yl)piperidin-1-yl)-9-ethyl-6,6-dimethyl-11-oxo-6,11-dihydro-5H-benzo[b]carbazole-3-carbonitrile] | < 0.5 µM |
| COc1cc(N2CCN(Cc3cncc(N4CCC(=O)NC4=O)c3)CC2)ccc1Nc1ncc(Cl)c(Nc2ccccc2P(C)(C)=O)n1 [GT-07709, 1-(5-((4-(4-((5-chloro-4-((2-(dimethylphosphoryl)phenyl)amino)pyrimidin-2-yl)amino)-3-methoxyphenyl)piperazin-1-yl)methyl)pyridin-3-yl)dihydropyrimidine-2,4(1H,3H)-dione] | 0.5 to 1 µM |

Results, then the compound that gave them:

| IC50 | SMILES |
| --- | --- |
| < 0.5 µM | O=C1CCC(c2cnc(F)c(CN3C[C@H]4C[C@@H]3CN4c3ccc(-c4cc(F)c5c(c4)C(=O)N(C(C(=O)Nc4nccs4)c4ncn6c4CCC6)C5)cc3)c2)C(=O)N1 (stereo partly drawn) [GT-07562, 2-(6,7-dihydro-5H-pyrrolo[1,2-c]imidazol-1-yl)-2-(6-(4-((1R,4R)-5-((5-(2,6-dioxopiperidin-3-yl)-2-fluoropyridin-3-yl)methyl)-2,5-diazabicyclo[2.2.1]heptan-2-yl)phenyl)-4-fluoro-1-oxoisoindolin-2-yl)-N-(thiazol-2-yl)acetamide] |
| 1 to 1.9 µM | Cc1cc(Nc2ncc(Cl)c(Nc3ccccc3S(=O)(=O)C(C)C)n2)c(OC(C)C)cc1C1CCN(Cc2cncc(C3CCC(=O)NC3=O)c2)CC1 (stereo not shown) [GT-07601, 3-(5-((4-(4-((5-chloro-4-((2-(isopropylsulfonyl)phenyl)amino)pyrimidin-2-yl)amino)-5-isopropoxy-2-methylphenyl)piperidin-1-yl)methyl)pyridin-3-yl)piperidine-2,6-dione] |
| < 0.5 µM | COc1cc(N2CCC(N3CCN(Cc4ccc(C5CCC(=O)NC5=O)cc4)CC3)CC2)ccc1Nc1ncc(Cl)c(Nc2ccccc2P(C)(C)=O)n1 (stereo not shown) [GT-07602, 3-(4-((4-(1-(4-((5-chloro-4-((2-(dimethylphosphoryl)phenyl)amino)pyrimidin-2-yl)amino)-3-methoxyphenyl)piperidin-4-yl)piperazin-1-yl)methyl)phenyl)piperidine-2,6-dione] |
| 1 to 1.9 µM | COc1cc(N2CCC(N3CCN(Cc4cccc(N5CCC(=O)NC5=O)c4)CC3)CC2)ccc1Nc1ncc(Cl)c(Nc2ccccc2P(C)(C)=O)n1 [GT-07604, 1-(3-((4-(1-(4-((5-chloro-4-((2-(dimethylphosphoryl)phenyl)amino)pyrimidin-2-yl)amino)-3-methoxyphenyl)piperidin-4-yl)piperazin-1-yl)methyl)phenyl)dihydropyrimidine-2,4(1H,3H)-dione] |
| 1 to 1.9 µM | COc1cc(N2CCC(N3CCN(Cc4cccc(NC5CCC(=O)NC5=O)c4)CC3)CC2)ccc1Nc1ncc(Cl)c(Nc2ccccc2P(C)(C)=O)n1 (stereo not shown) [GT-07605, 3-((3-((4-(1-(4-((5-chloro-4-((2-(dimethylphosphoryl)phenyl)amino)pyrimidin-2-yl)amino)-3-methoxyphenyl)piperidin-4-yl)piperazin-1-yl)methyl)phenyl)amino)piperidine-2,6-dione] |
| 0.5 to 1 µM | COc1cc(N2CCC(N3CCN(Cc4ccc(C5CCC(=O)NC5=O)cn4)CC3)CC2)ccc1Nc1ncc(Cl)c(Nc2ccccc2P(C)(C)=O)n1 (stereo not shown) [GT-07613, 3-(6-((4-(1-(4-((5-chloro-4-((2-(dimethylphosphoryl)phenyl)amino)pyrimidin-2-yl)amino)-3-methoxyphenyl)piperidin-4-yl)piperazin-1-yl)methyl)pyridin-3-yl)piperidine-2,6-dione] |
| 1 to 1.9 µM | COc1cc(N2CCC(N3CCN(Cc4cncc(C5CCC(=O)NC5=O)c4)CC3)CC2)ccc1Nc1ncc(Cl)c(Nc2ccccc2P(C)(C)=O)n1 (stereo not shown) [GT-07614, 3-(5-((4-(1-(4-((5-chloro-4-((2-(dimethylphosphoryl)phenyl)amino)pyrimidin-2-yl)amino)-3-methoxyphenyl)piperidin-4-yl)piperazin-1-yl)methyl)pyridin-3-yl)piperidine-2,6-dione] |
| 1 to 1.9 µM | COc1cc(N2CCC(N(C)Cc3ccc(N4CCC(=O)NC4=O)cn3)CC2)ccc1Nc1ncc(Cl)c(Nc2ccccc2P(C)(C)=O)n1 [GT-07617, 1-(6-(((1-(4-((5-chloro-4-((2-(dimethylphosphoryl)phenyl)amino)pyrimidin-2-yl)amino)-3-methoxyphenyl)piperidin-4-yl)(methyl)amino)methyl)pyridin-3-yl)dihydropyrimidine-2,4(1H,3H)-dione] |
| 1 to 1.9 µM | COc1cc(N2CCC(N(C)Cc3cncc(N4CCC(=O)NC4=O)c3)CC2)ccc1Nc1ncc(Cl)c(Nc2ccccc2P(C)(C)=O)n1 [GT-07695, 1-(5-(((1-(4-((5-chloro-4-((2-(dimethylphosphoryl)phenyl)amino)pyrimidin-2-yl)amino)-3-methoxyphenyl)piperidin-4-yl)(methyl)amino)methyl)pyridin-3-yl)dihydropyrimidine-2,4(1H,3H)-dione] |
| < 0.5 µM | COc1cc(N2CCC(N(C)Cc3cc(C4CCC(=O)NC4=O)cnc3F)CC2)ccc1Nc1ncc(Cl)c(Nc2ccccc2P(C)(C)=O)n1 (stereo not shown) [GT-07696, 3-(5-(((1-(4-((5-chloro-4-((2-(dimethylphosphoryl)phenyl)amino)pyrimidin-2-yl)amino)-3-methoxyphenyl)piperidin-4-yl)(methyl)amino)methyl)-6-fluoropyridin-3-yl)piperidine-2,6-dione] |
| < 0.5 µM | CCc1cc2c(cc1N1CCC(N3CCN(Cc4cncc(N5CCC(=O)NC5=O)c4)CC3)CC1)C(C)(C)c1[nH]c3cc(C#N)ccc3c1C2=O [GT-07702, 8-(4-(4-((5-(2,4-dioxotetrahydropyrimidin-1(2H)-yl)pyridin-3-yl)methyl)piperazin-1-yl)piperidin-1-yl)-9-ethyl-6,6-dimethyl-11-oxo-6,11-dihydro-5H-benzo[b]carbazole-3-carbonitrile] |
| < 0.5 µM | CCc1cc2c(cc1N1CCC(N3CCN(Cc4cc(C5CCC(=O)NC5=O)cnc4F)CC3)CC1)C(C)(C)c1[nH]c3cc(C#N)ccc3c1C2=O (stereo not shown) [GT-07703, 8-(4-(4-((5-(2,6-dioxopiperidin-3-yl)-2-fluoropyridin-3-yl)methyl)piperazin-1-yl)piperidin-1-yl)-9-ethyl-6,6-dimethyl-11-oxo-6,11-dihydro-5H-benzo[b]carbazole-3-carbonitrile] |
| < 0.5 µM | CCc1cc2c(cc1N1CCC(N3CCN(Cc4ccc(C5CCC(=O)NC5=O)cn4)CC3)CC1)C(C)(C)c1[nH]c3cc(C#N)ccc3c1C2=O (stereo not shown) [GT-07705, 8-(4-(4-((5-(2,6-dioxopiperidin-3-yl)pyridin-2-yl)methyl)piperazin-1-yl)piperidin-1-yl)-9-ethyl-6,6-dimethyl-11-oxo-6,11-dihydro-5H-benzo[b]carbazole-3-carbonitrile] |
